In US20260001914A1, “MACROCYCLIC PEPTIDES TARGETING KRAS” (Merck Sharp & Dohme LLC, priority 2022, published 2026):
*1 amine or outer side, *2 acyl side, *3 side chain or, on linkers, in order; H or OH if unused. Where a SMILES comes first, the peptide text is derived from it. Bridges are numbered along the chain shown (N, C = ends). [ ]: non-standard residue; d: D form. Phe(4-guanidino) = N=C(N)Nc1ccc(C[C@H](N)C(=O)O)cc1; Ala(pyrimidin-5-yl) = N[C@@H](Cc1cncnc1)C(=O)O; NMe3Pal(6-Me) = CN[C@@H](Cc1ccc(C)nc1)C(=O)O; X5 = O=C([C@H](Cc1c(F)ccnc1F)N[*:1])[*:2]; Ala(cPent) = N[C@@H](CC1CCCC1)C(=O)O; Phe(2-F) = N[C@@H](Cc1ccccc1F)C(=O)O; NMe3Pal = CN[C@@H](Cc1cccnc1)C(=O)O; X1 = O=C(C12CC(CN[*:1])(C1)C2)[*:2]; Ala(cPr) = N[C@@H](CC1CC1)C(=O)O; NMeF = CN[C@@H](Cc1ccccc1)C(=O)O; PhLac = O=C(O)[C@@H](O)Cc1ccccc1; X4 = O=C([C@H](CCCF)N[*:1])[*:2]; 3Pal = N[C@@H](Cc1cccnc1)C(=O)O; Ahp(2) = CCCCC[C@H](N)C(=O)O; Cba = N[C@@H](CC1CCC1)C(=O)O; hLeu = CC(C)CC[C@H](N)C(=O)O; αMeC = C[C@](N)(CS)C(=O)O; NMeA = CN[C@@H](C)C(=O)O; Nle = CCCC[C@H](N)C(=O)O; Pra = C#CC[C@H](N)C(=O)O

Each molecule was assayed against KRAS-G12D protein (Homo sapiens, UniProt P01116, G12D) (assay: SOS-mediated nucleotide exchange assay (BODIPY-GDP / Tb-streptavidin TR-FRET)).
Sequence of KRAS-G12D protein (P01116 1-188 isoform P01116-2 G12D): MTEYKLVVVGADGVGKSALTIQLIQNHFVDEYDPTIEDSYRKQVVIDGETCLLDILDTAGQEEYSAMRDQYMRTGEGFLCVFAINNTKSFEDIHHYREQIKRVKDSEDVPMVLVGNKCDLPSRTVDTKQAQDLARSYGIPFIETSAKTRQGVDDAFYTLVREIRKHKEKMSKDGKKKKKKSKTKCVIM
Format: biochemical

In order of rising EC50:
1. CCCCC[C@@H]1NC(=O)[C@H](Cc2ccc(OC)cc2)NC(=O)[C@H](CC2CCCC2)NC(=O)[C@H](Cc2ccc(NC(=N)N)cc2)NC(=O)[C@H](CCCNC(=N)N)NC(=O)[C@H](Cc2ccccc2)NC(=O)CSC[C@@](C)(C(N)=O)NC(=O)[C@H](Cc2ccccc2)N(C)C1=O [compound 366, cyclo(F-R-Phe4Gn-cPeA-TyrOMe-Ahp-NMeF-aMeCl-ClAc)] ({CH2CO}-FR[Phe(4-guanidino)][Ala(cPent)]Y(Me)[Ahp(2)][NMeF][αMeC]-NH2; thioether N-8)  4.01 nM
2. CC(C)CC[C@@H]1NC(=O)[C@H](Cc2ccccc2F)NC(=O)[C@H](CCCF)NC(=O)[C@H](Cc2cncnc2)NC(=O)[C@H](C)N(C)C(=O)[C@H](Cc2ccccc2)OC(=O)C23CC(CNC(=O)[C@H](Cc4ccccc4)N(C)C1=O)(C2)C3 [compound 133, cyclo(FLac-NMeA-PyrimAla-NvaF-Phe2F-hL-NMeF-amBCP)] (cyclo([NMeA][Ala(pyrimidin-5-yl)][X4][Phe(2-F)][hLeu][NMeF][X1][PhLac]))  7.79 nM
3. CCCC[C@@H]1NC(=O)[C@H](Cc2cccnc2)NC(=O)[C@H](C)N(C)C(=O)[C@H](Cc2ccccc2)OC(=O)C23CC(CNC(=O)[C@H](Cc4ccc(C)nc4)N(C)C(=O)[C@H](CCCC)NC(=O)[C@H](Cc4ccccc4F)NC1=O)(C2)C3 [compound 402, cyclo(FLac-NMeA-3Pal-Nle-Phe2F-Nle-NMe3Pal4Me-amBCP)] (cyclo([3Pal][Nle][Phe(2-F)][Nle][NMe3Pal(6-Me)][X1][PhLac][NMeA]))  18 nM
4. CCCC[C@@H]1NC(=O)[C@H](Cc2ccccc2F)NC(=O)[C@H](CC2CCCC2)NC(=O)[C@H](Cc2cncnc2)NC(=O)[C@H](C)N(C)C(=O)[C@H](Cc2ccccc2)OC(=O)C23CC(CNC(=O)[C@H](Cc4cccnc4)N(C)C1=O)(C2)C3 [compound 126, cyclo(FLac-NMeA-PyrimAla-cPeA-Phe2F-Nle-NMe3Pal-amBCP)] (cyclo([Ala(cPent)][Phe(2-F)][Nle][NMe3Pal][X1][PhLac][NMeA][Ala(pyrimidin-5-yl)]))  22.3 nM
5. CC(C)CC[C@@H]1NC(=O)[C@H](Cc2c(F)ccnc2F)NC(=O)[C@H](CC2CC2)NC(=O)[C@H](Cc2cncnc2)NC(=O)[C@H](C)N(C)C(=O)[C@H](Cc2ccccc2)OC(=O)C23CC(CNC(=O)[C@H](Cc4ccccc4)N(C)C1=O)(C2)C3 [compound 295, cyclo(FLac-NMeA-PyrimAla-cPrA-3Pal26F2-hL-NMeF-amBCP)] (cyclo([Ala(cPr)][X5][hLeu][NMeF][X1][PhLac][NMeA][Ala(pyrimidin-5-yl)]))  63 nM
6. C#CC[C@@H]1NC(=O)[C@H](CC2CCC2)NC(=O)[C@H](Cc2cccnc2)NC(=O)[C@H](CCCNC(=N)N)NC(=O)[C@H](Cc2ccccc2)NC(=O)CSC[C@@](C)(C(N)=O)NC(=O)[C@H](Cc2ccccc2)N(C)C(=O)[C@H](CCCC)NC1=O [compound 51, cyclo(F-R-3Pal-cBuA-Pra-Nle-NMeF-aMeCl-ClAc)] ({CH2CO}-FR[3Pal][Cba][Pra][Nle][NMeF][αMeC]-NH2; thioether N-8)  298 nM
7. CCCC[C@@H]1NC(=O)[C@H](Cc2cccnc2)NC(=O)[C@H](C)N(C)C(=O)[C@H](Cc2ccc(O)cc2)NC(=O)C23CC(CNC(=O)[C@H](Cc4cccnc4)N(C)C(=O)[C@H](CCCC)NC(=O)[C@H](Cc4ccccc4F)NC1=O)(C2)C3 [compound 168, cyclo(Y-NMeA-3Pal-Nle-Phe2F-Nle-NMe3Pal-amBCP)] (cyclo(Y[NMeA][3Pal][Nle][Phe(2-F)][Nle][NMe3Pal][X1]))  440 nM
8. CCCC[C@@H]1NC(=O)[C@H](Cc2cccnc2)NC(=O)[C@H](C)N(C)C(=O)[C@H](Cc2cccnc2)NC(=O)C23CC(CNC(=O)[C@H](Cc4cccnc4)N(C)C(=O)[C@H](CCCC)NC(=O)[C@H](Cc4ccccc4F)NC1=O)(C2)C3 [compound 163, cyclo(3Pal-NMeA-3Pal-Nle-Phe2F-Nle-NMe3Pal-amBCP)] (cyclo([3Pal][NMeA][3Pal][Nle][Phe(2-F)][Nle][NMe3Pal][X1]))  3060 nM
